Laboratory results: patent US7670991B2, “Substituted benzoylcyclohexenones and their use as herbicidal agents” (Bayer CropScience AG, priority 2001, dated 2010)

experiment: log P by reversed-phase HPLC (C 18), acidic range; type: physicochemical; details: marked a): acidic range, 0.1% aqueous phosphoric acid, acetonitrile; HPLC reversed-phase column (C 18); 43° C.
Description: Temperature: 43° C. (a) Mobile phases for the determination in the acidic range: 0.1% aqueous phosphoric acid, acetonitrile; linear gradient from 10% acetonitrile to 90% acetonitrile—the corresponding measurement results are marked ^a) in Table 1.

logP | SMILES
(I-2) logP = 2.83^a) | CC1(C)CCC(=O)C(C(=O)c2ccc(Cl)c(NC(=O)N3CCCCO3)c2Cl)=C1O [Example 2-69]
(I-2) logP = 2.52^a) | CC1CC(=O)C(C(=O)c2ccc(Cl)c(NC(=O)N3CCCCO3)c2Cl)=C(O)C1 (racemic) [Example 3-69]
(I-2) logP = 2.33^a) | CON(C)C(=O)Nc1c(Cl)ccc(C(=O)C2=C(O)CC(C)CC2=O)c1Cl (racemic) [Example 3-1]
(I-2) logP = 2.61^a) | CON(C)C(=O)Nc1c(Cl)ccc(C(=O)C2=C(O)C(C)(C)CCC2=O)c1Cl [Example 2-1]
(I-2) logP = 2.57^a) | CC1(C)CCC(=O)C(C(=O)c2ccc(Cl)c(NC(=O)N3CCCO3)c2Cl)=C1O [Example 2-61]
(I-2) logP = 2.76^a) | CC1(C)CC(=O)C(C(=O)c2ccc(Cl)c(NC(=O)N3CCCCO3)c2Cl)=C(O)C1 [Example 4-69]
(I-2) logP = 2.54^a) | CON(C)C(=O)Nc1c(Cl)ccc(C(=O)C2=C(O)CC(C)(C)CC2=O)c1Cl [Example 4-1]

same assay, conditions: marked a): acidic range, 0.1% aqueous phosphoric acid/acetonitrile gradient, HPLC C 18, 43° C.

logP | SMILES
(I-2) logP = 1.91^a) | CCN(C)C(=O)Nc1c(Cl)ccc(C(=O)C2=C(O)CCCC2=O)c1Cl [Example 1-170]
(I-2) logP = 2.05^a) | O=C(NCC1CC1)Nc1c(Cl)ccc(C(=O)C2=C(O)CCCC2=O)c1Cl [Example 1-171]
(I-2) logP = 2.17^a) | CC(C)N(C)C(=O)Nc1c(Cl)ccc(C(=O)C2=C(O)CCCC2=O)c1Cl [Example 1-166]
(I-2) logP = 1.88^a) | CCONC(=O)Nc1c(Cl)ccc(C(=O)C2=C(O)CCCC2=O)c1Cl [Example 1-136]
(I-2) Y = SC6H5 logP = 2.98^a) | CON(C)C(=O)Nc1c(Cl)ccc(C(=O)C2=C(Sc3ccccc3)CCCC2=O)c1Cl [Example 1-161]
(I-2) logP = 2.02^a) | O=C1CCCC(O)=C1C(=O)c1ccc(Cl)c(NC(=O)C2=NOCC2)c1Cl [Example 1-145]
(I-2) logP = 2.22^a) | CCn1ccsc1=NC(=O)Nc1c(Cl)ccc(C(=O)C2=C(O)CCCC2=O)c1Cl [Example 1-163]
(I-2) logP = 2.08^a) | O=C1CCCC(O)=C1C(=O)c1ccc(Cl)c(NC(=O)c2ccco2)c1Cl [Example 1-147]
(I-2) logP = 2.41^a) | CC(C)(C)NC(=O)Nc1c(Cl)ccc(C(=O)C2=C(O)CCCC2=O)c1Cl [Example 1-168]
(I-2) logP = 1.96^a) | Cn1ccsc1=NC(=O)Nc1c(Cl)ccc(C(=O)C2=C(O)CCCC2=O)c1Cl [Example 1-162]
(I-2) logP = 2.96^a) | O=C1CCCC(O)=C1C(=O)c1ccc(Cl)c(NC(=O)c2ccc(Cl)cc2)c1Cl [Example 1-150]
(I-2) logP = 2.52^a) | O=C(Nc1c(Cl)ccc(C(=O)C2=C(O)CCCC2=O)c1Cl)NN1CCCCC1 [Example 1-160]
(I-2) logP = 2.37^a) | O=C(NCc1ccccc1)Nc1c(Cl)ccc(C(=O)C2=C(O)CCCC2=O)c1Cl [Example 1-142]
(I-2) logP = 2.17^a) | O=C1CCCC(O)=C1C(=O)c1ccc(Cl)c(NC(=O)N2CCCCO2)c1Cl [Example 1-164]
(I-2) logP = 1.93^a) | O=C1CCCC(O)=C1C(=O)c1ccc(Cl)c(NC(=O)N2CCCO2)c1Cl [Example 1-151]
(I-2) logP = 2.30^a) | CCON(C)C(=O)Nc1c(Cl)ccc(C(=O)C2=C(O)CCCC2=O)c1Cl [Example 1-167]
(I-2) logP = 2.49^a) | CCN(C(=O)Nc1c(Cl)ccc(C(=O)C2=C(O)CCCC2=O)c1Cl)C(C)C [Example 1-169]
(I-2) logP = 2.56^a) | CCCN(CC)C(=O)Nc1c(Cl)ccc(C(=O)C2=C(O)CCCC2=O)c1Cl [Example 1-165]
(I-2) logP = 2.28^a) | CON(C)C(=S)Nc1c(Cl)ccc(C(=O)C2=C(O)CCCC2=O)c1Cl [Example 1-159]

Continued, compound first:

SMILES | logP
CONC(=O)Nc1c(Cl)ccc(C(=O)C2=C(O)CCCC2=O)c1Cl [Example 1-108] | (I-2) logP = 1.58^a)
O=C1CCCC(O)=C1C(=O)c1ccc(Cl)c(NC(=O)N2CCCC2)c1Cl [Example 1-16] | (I-2) logP = 1.90^a)
CCN1CCCN(C(=O)Nc2c(Cl)ccc(C(=O)C3=C(O)CCCC3=O)c2Cl)C1=O [Example 1-23] | (I-2) logP = 2.65^a)
O=C1CCCC(O)=C1C(=O)c1ccc(Cl)c(NC(=O)N2CCCCC2)c1Cl [Example 1-105] | (I-2) logP = 2.26^a)
COC(=O)c1ccc(C(F)(F)F)cc1NC(=O)N(C)OC [IIIa-10] | logP = 3.35^a)
CNC(=O)Nc1c(Cl)ccc(C(=O)C2=C(O)CCCC2=O)c1Cl [Example 1-8] | (I-2) logP = 1.46^a)
O=C(Nc1c(Cl)ccc(C(=O)C2=C(O)CCCC2=O)c1Cl)NC1CC1 [Example 1-13] | (I-2) logP = 1.77^a)
CC(C)NC(=O)Nc1c(Cl)ccc(C(=O)C2=C(O)CCCC2=O)c1Cl [Example 1-12] | (I-2) logP = 1.99^a)
CN(C)C(=O)Nc1c(Cl)ccc(C(=O)C2=C(O)CCCC2=O)c1Cl [Example 1-10] | (I-2) logP = 1.64^a)
CCNC(=O)Nc1c(Cl)ccc(C(=O)C2=C(O)CCCC2=O)c1Cl [Example 1-9] | (I-2) logP = 1.70^a)
CCN(CC)C(=O)Nc1c(Cl)ccc(C(=O)OC)c1Cl [IIIa-9] | logP = 2.02^a)
CN1CCN(C(=O)N(C)c2cc(C(F)(F)F)ccc2C(=O)C2=C(O)CCCC2=O)C1=O [Example 1-104] | (I-1) logP = 2.04^a)
NC(=O)Nc1c(Cl)ccc(C(=O)C2=C(O)CCCC2=O)c1Cl [Example 1-106] | (I-2) logP = 1.29^a)
O=C(Nc1c(Cl)ccc(C(=O)C2=C(O)CCCC2=O)c1Cl)NN1CCCC1 [Example 1-101] | (I-2) logP = 1.94^a)
O=C(NCC1CCCO1)Nc1c(Cl)ccc(C(=O)C2=C(O)CCCC2=O)c1Cl (stereo not drawn) [Example 1-33] | (I-2) logP = 1.81^a)
CC(C)N1CCCN(C(=O)Nc2c(Cl)ccc(C(=O)C3=C(O)CCCC3=O)c2Cl)C1=O [Example 1-25] | (I-2) logP = 2.98^a)
COC(=O)c1ccc(C(F)(F)F)cc1NC(=O)N1CCN(C)C1=O [IIIa-11] | logP = 2.76^a)
COC(CNC(=O)Nc1c(Cl)ccc(C(=O)C2=C(O)CCCC2=O)c1Cl)OC [Example 1-35] | (I-2) logP = 1.72^a)
CCN(CC)C(=O)Nc1c(Cl)ccc(C(=O)C2=C(O)CCCC2=O)c1Cl [Example 1-7] | (I-2) logP = 2.21^a)
COC(=O)c1ccc(Cl)c(NC(=O)NN(C)C)c1Cl [IIIa-7] | logP = 1.64^a)
COCCN(C)C(=O)Nc1c(Cl)ccc(C(=O)C2=C(O)CCCC2=O)c1Cl [Example 1-132] | (I-2) logP = 2.04^a)
COC(=O)c1ccc(Cl)c(NC(=O)Nn2cnnc2)c1Cl [IIIa-25] | logP = 0.93^a)
CCN(CC)C(=O)Nc1cc(C(F)(F)F)ccc1C(=O)OC [IIIa-17] | logP = 3.10^a)
O=C1CCCC(O)=C1C(=O)c1ccc(Cl)c(NC(=O)N2CCCN(C3CCCCC3)C2=O)c1Cl [Example 1-103] | (I-2) logP = 3.86^a)
O=C1CCCC(O)=C1C(=O)c1ccc(Cl)c(NC(=O)c2cccs2)c1Cl [Example 1-111] | (I-2) logP = 2.34^a)
CN1CCN(C(=O)Nc2cc(C(F)(F)F)ccc2C(=O)C2=C(O)CCCC2=O)C1=O [Example 1-100] | (I-1) logP = 2.57^a)
CCCNC(=O)Nc1c(Cl)ccc(C(=O)C2=C(O)CCCC2=O)c1Cl [Example 1-107] | (I-2) logP = 1.98^a)

same assay, conditions: marked a): acidic range, 0.1% aqueous phosphoric acid/acetonitrile gradient, reversed-phase HPLC C 18, 43° C.

logP | SMILES
(I-2) logP = 2.23^a) | CON(C)C(=O)Nc1c(Cl)ccc(C(=O)C2=C(O)C3CCC(C3)C2=O)c1Cl (stereo not drawn) [Example 5-1]
